Results from article PMC6002953 (ACS chemical neuroscience, 2017).
Read-outs that look alike come from different tables or passages of the source.

How the values were obtained:
human OX2 receptor = target: T1, human OX2 receptor (Homo sapiens, UniProt O43614); assay: Calcium mobilization Ke assay, OX2; format: cell-based; conditions: for inhibition at 10 µM: read-out: Ke (OX2, nM) column: inhibition at 10 μM final concentration
T1 sequence (O43614 1-444): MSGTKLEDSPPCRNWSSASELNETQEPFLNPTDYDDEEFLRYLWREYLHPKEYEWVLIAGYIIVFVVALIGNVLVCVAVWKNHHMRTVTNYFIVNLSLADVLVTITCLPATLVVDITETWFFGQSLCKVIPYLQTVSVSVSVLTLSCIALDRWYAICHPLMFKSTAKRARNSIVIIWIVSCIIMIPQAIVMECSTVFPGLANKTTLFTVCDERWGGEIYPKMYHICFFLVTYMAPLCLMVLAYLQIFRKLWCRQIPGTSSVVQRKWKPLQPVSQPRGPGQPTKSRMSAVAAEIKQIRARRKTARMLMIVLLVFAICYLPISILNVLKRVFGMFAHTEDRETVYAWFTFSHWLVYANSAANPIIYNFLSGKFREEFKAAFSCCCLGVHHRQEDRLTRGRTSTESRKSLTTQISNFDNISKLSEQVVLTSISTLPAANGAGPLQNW

human OX1 receptor = target: T2, human OX1 receptor (Homo sapiens, UniProt O43613); assay: Calcium mobilization Ke assay, OX1; format: cell-based; conditions: for OX2/OX1: ratio of Ke values OX2/OX1
T2 sequence (O43613 1-425): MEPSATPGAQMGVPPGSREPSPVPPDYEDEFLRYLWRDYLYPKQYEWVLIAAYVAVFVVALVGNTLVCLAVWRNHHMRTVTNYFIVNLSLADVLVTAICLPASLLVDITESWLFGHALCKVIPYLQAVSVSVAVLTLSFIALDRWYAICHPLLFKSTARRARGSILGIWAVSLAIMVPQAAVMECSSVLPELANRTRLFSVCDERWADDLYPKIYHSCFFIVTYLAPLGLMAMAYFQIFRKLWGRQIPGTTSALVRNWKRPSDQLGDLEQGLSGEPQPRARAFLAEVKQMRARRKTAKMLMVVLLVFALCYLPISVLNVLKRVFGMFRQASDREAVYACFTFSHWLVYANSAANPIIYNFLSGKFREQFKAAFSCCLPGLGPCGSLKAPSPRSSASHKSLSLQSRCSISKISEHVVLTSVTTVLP

OX1 = conditions: cited from earlier work
[1] = Ke (OX1, nM), compound appeared insurmountable during standard assay procedure, incubation increased to 1 hour

COc1cc2c(cc1OCC(F)(F)F)C(Cc1cccnc1)N(CC(=O)NCc1ccccc1)CC2 (centres unmarked) [Compound 19b, N-Benzyl-2-[6-methoxy-1-(pyridin-3-ylmethyl)-7-(2,2,2-trifluoroethoxy)-1,2,3,4-tetrahydroisoquinolin-2-yl]acetamide] gave an inhibition at 10 µM (human OX2 receptor) of less than 50% and a Kd (human OX1 receptor; [1]) greater than 10000 nM.
For COc1cc2c(cc1OCC(F)(F)F)C(Cc1ccccn1)N(CC(=O)NCc1ccccc1)CC2 (centres unmarked) [Compound 19a, N-Benzyl-2-[6-methoxy-1-(pyridin-2-ylmethyl)-7-(2,2,2-trifluoroethoxy)-1,2,3,4-tetrahydroisoquinolin-2-yl]acetamide], the inhibition at 10 µM (human OX2 receptor) was less than 50%, the Kd (human OX1 receptor; [1]) was 884 ± 70 nM and the OX2/OX1 (human OX1 receptor) was greater than 11.
For Cc1nc2ccc(NC(=O)Nc3ccnc4cccnc34)cc2o1 [SB334867], the “selectivity over OX2” value (OX1) is listed as 50 ×, the “selectivity over OX2” value (OX1; listed as 3) is listed as ~ 50 × and the IC50 (OX1; read-out: IC50 (OX1), commonly used OX1 antagonist) is listed as 40 nM.
Compound COc1cc2c(cc1OCC(F)(F)F)C(Cc1ccc(C)c(C)c1)N(CC(=O)NCc1cccnc1)CC2 (centres unmarked) [Compound 15b, 2-{1-[(3,4-Dimethylphenyl)methyl]-6-methoxy-7-(2,2,2-trifluoroethoxy)-1,2,3,4-tetrahydroisoquinolin-2-yl}-N-(pyridin-3-ylmethyl)acetamide] has a Kd (human OX2 receptor) of 1360 ± 150 nM, a Kd (human OX1 receptor) of 20.4 ± 2.9 nM and an OX2/OX1 (human OX1 receptor) of 67.
With COc1cc2c(cc1N(C)C)C(Cc1cccc(N(C)C)c1)N(CC(=O)NCc1ccccc1)CC2 (centres unmarked) [Compound 42, N-Benzyl-2-[7-(dimethylamino)-1-{[3-(dimethylamino)phenyl]methyl}-6-methoxy-1,2,3,4-tetrahydroisoquinolin-2-yl]acetamide] the Kd (human OX2 receptor) was 1360 nM, the Kd (human OX1 receptor) was 148 ± 36 nM and the OX2/OX1 (human OX1 receptor) was 9.1.
With COc1cc2c(cc1OCC(F)(F)F)C(Cc1ccncc1)N(CC(=O)NCc1ccccc1)CC2 (centres unmarked) [Compound 19c, N-Benzyl-2-[6-methoxy-1-(pyridin-4-ylmethyl)-7-(2,2,2-trifluoroethoxy)-1,2,3,4-tetrahydroisoquinolin-2-yl]acetamide] the inhibition at 10 µM (human OX2 receptor) was less than 50%, the Kd (human OX1 receptor; [1]) was 1860 nM and the OX2/OX1 (human OX1 receptor) was greater than 5.4.
For COc1cc2c(cc1OCC(F)(F)F)C(Cc1ccc3ccccc3c1)N(CC(=O)NCc1cccnc1)CC2 (centres unmarked) [Compound 15a, 2-[6-Methoxy-1-(naphthalen-2-ylmethyl)-7-(2,2,2-trifluoroethoxy)-1,2,3,4-tetrahydroisoquinolin-2-yl]-N-(pyridin-3-ylmethyl)acetamide], the Kd (human OX2 receptor) was 1750 ± 230 nM, the Kd (human OX1 receptor) was 29.5 ± 2.2 nM and the OX2/OX1 (human OX1 receptor) was 59.
For COc1cc(CC2c3cc(OS(C)(=O)=O)c(OC)cc3CCN2CC(=O)NCc2ccccc2)ccc1OCc1ccccc1 (centres unmarked) [Compound 25a, 2-[(Benzylcarbamoyl)methyl]-1-{[4-(benzyloxy)-3-methoxyphenyl]methyl}-6-methoxy-1,2,3,4-tetrahydroisoquinolin-7-yl methanesulfonate], the inhibition at 10 µM (human OX2 receptor) was less than 50%, the Kd (human OX1 receptor) was 43 ± 18 nM and the OX2/OX1 (human OX1 receptor) was greater than 232.
COc1ccc(CC2c3cc(N(C)C)c(OC)cc3CCN2CC(=O)NCc2ccccc2)cc1OC (centres unmarked) [Compound 34a, N-Benzyl-2-{1-[(3,4-dimethoxyphenyl)methyl]-7-(dimethylamino)-6-methoxy-1,2,3,4-tetrahydroisoquinolin-2-yl}acetamide] showed a Kd (human OX2 receptor) greater than 10000 nM, a Kd (human OX1 receptor) of 31.2 ± 3.3 nM and an OX2/OX1 (human OX1 receptor) greater than 321.
COc1cc2c(cc1NS(C)(=O)=O)C(Cc1ccc(OC)c(OC)c1)N(CC(=O)NCc1ccccc1)CC2 (centres unmarked) [Compound 34d, N-Benzyl-2-{1-[(3,4-dimethoxyphenyl)methyl]-7-methanesulfonamido-6-methoxy-1,2,3,4-tetrahydroisoquinolin-2-yl}acetamide] showed a Kd (human OX2 receptor) greater than 10000 nM, a Kd (human OX1 receptor) of 128 ± 13 nM and an OX2/OX1 (human OX1 receptor) greater than 78.
With CCCOc1cc2c(cc1OC)CCN(CC(=O)NCc1ccccc1)C2Cc1cccc(N(C)C)c1 (centres unmarked) [Compound 12f, N-Benzyl-2-(1-{[3-(dimethylamino)phenyl]methyl}-6-methoxy-7-propoxy-1,2,3,4-tetrahydroisoquinolin-2-yl)acetamide] the inhibition at 10 µM (human OX2 receptor) was less than 50%, the Kd (human OX1 receptor) was 20.6 ± 2.8 nM and the OX2/OX1 (human OX1 receptor) was greater than 485.
CCCC(=O)Nc1cc2c(cc1OC)CCN(CC(=O)NCc1ccccc1)C2Cc1ccc(OC)c(OC)c1 (centres unmarked) [Compound 34e, N-{2-[(Benzylcarbamoyl)methyl]-1-[(3,4-dimethoxyphenyl)methyl]-6-methoxy-1,2,3,4-tetrahydroisoquinolin-7-yl}butanamide] gave a Kd (human OX2 receptor) greater than 10000 nM, a Kd (human OX1 receptor) of 689 ± 73 nM and an OX2/OX1 (human OX1 receptor) greater than 14.5.
Work on COc1cc2c(cc1N)C(Cc1ccc(OC)c(OC)c1)N(CC(=O)NCc1ccccc1)CC2 (centres unmarked) [Compound 33, 2-{7-Amino-1-[(3,4-dimethoxyphenyl)methyl]-6-methoxy-1,2,3,4-tetrahydroisoquinolin-2-yl}-N-benzylacetamide] yielded a Kd (human OX2 receptor) greater than 10000 nM, a Kd (human OX1 receptor) of 494 ± 32 nM and an OX2/OX1 (human OX1 receptor) greater than 20.
In the case of CCCOc1cc2c(cc1OC)CCN(CC(=O)NCc1ccccc1)C2Cc1ccc(OCc2ccccn2)c(OC)c1 (centres unmarked) [Compound 12g, N-Benzyl-2-(6-methoxy-1-{[3-methoxy-4-(pyridin-2-ylmethoxy)phenyl]methyl}-7-propoxy-1,2,3,4-tetrahydroisoquinolin-2-yl)acetamide], the Kd (human OX2 receptor) is reported as greater than 10000 nM, the Kd (human OX1 receptor) is reported as 96.4 ± 34 nM and the “selectivity over OX2” value (human OX1 receptor; OX1 over OX2, calcium mobilization assays) is reported as greater than 100 fold. The OX2/OX1 (human OX1 receptor) was greater than 104.
In the case of COc1cc2c(cc1NCc1ccccc1)C(Cc1ccc(OC)c(OC)c1)N(CC(=O)NCc1ccccc1)CC2 (centres unmarked) [Compound 34b, N-Benzyl-2-[7-(benzylamino)-1-[(3,4-dimethoxyphenyl)methyl]-6-methoxy-1,2,3,4-tetrahydroisoquinolin-2-yl]acetamide], the inhibition at 10 µM (human OX2 receptor) is reported as less than 35%, the Kd (human OX1 receptor) is reported as 352 ± 34 nM and the OX2/OX1 (human OX1 receptor) is reported as greater than 28.
CCCOc1cc2c(cc1OC)CCN(CC(=O)NCc1ccccc1)C2Cc1ccc(C(C)C)cc1 (centres unmarked) [Compound 12c, N-Benzyl-2-(6-methoxy-1-{[4-(propan-2-yl)phenyl]methyl}-7-propoxy-1,2,3,4-tetrahydroisoquinolin-2-yl)acetamide] gave an inhibition at 10 µM (human OX2 receptor) of less than 50%, a Kd (human OX1 receptor) of 141 ± 42 nM and an OX2/OX1 (human OX1 receptor) greater than 70.9.
CCCOc1cc2c(cc1OC)CCN(CC(=O)NCc1ccccc1)C2Cc1ccc2ccccc2c1 (centres unmarked) [Compound 12a, N-Benzyl-2-[6-methoxy-1-(naphthalen-2-ylmethyl)-7-propoxy-1,2,3,4-tetrahydroisoquinolin-2-yl]acetamide] showed an inhibition at 10 µM (human OX2 receptor) of less than 50%, a Kd (human OX1 receptor) of 121 ± 35 nM and an OX2/OX1 (human OX1 receptor) greater than 82.6.
For CCCOc1cc2c(cc1OC)CCN(CC(=O)NCc1ccccc1)C2Cc1ccc(C)c(C)c1 (centres unmarked) [Compound 12b, N-Benzyl-2-{1-[(3,4-dimethylphenyl)methyl]-6-methoxy-7-propoxy-1,2,3,4-tetrahydroisoquinolin-2-yl}acetamide], the inhibition at 10 µM (human OX2 receptor) was less than 50%, the Kd (human OX1 receptor) was 28.8 ± 4.4 nM and the OX2/OX1 (human OX1 receptor) was greater than 347.
For COC(=O)Nc1cc(CC2c3cc(NC(=O)OC)c(OC)cc3CCN2CC(=O)NCc2ccccc2)ccc1OC (centres unmarked) [Compound 38, Methyl N-{2-[(Benzylcarbamoyl)methyl]-6-methoxy-1-({4-methoxy-3-[(methoxycarbonyl)amino]phenyl}methyl)-1,2,3,4-tetrahydroisoquinolin-7-yl}carbamate], the Kd (human OX2 receptor) was 592 ± 170 nM and the Kd (human OX1 receptor) was greater than 10000 nM.
Compound COc1cc2c(cc1NC(C)=O)C(Cc1ccc(OC)c(OC)c1)N(CC(=O)NCc1ccccc1)CC2 (centres unmarked) [Compound 34c, N-Benzyl-2-{1-[(3,4-dimethoxyphenyl)methyl]-7-acetamido-6-methoxy-1,2,3,4-tetrahydroisoquinolin-2-yl}acetamide] has a Kd (human OX2 receptor) greater than 10000 nM, a Kd (human OX1 receptor) of 116 ± 44 nM and an OX2/OX1 (human OX1 receptor) greater than 86.
With COc1ccc(CC2c3cc(N(C)C)c(OC)cc3CCN2CC(=O)NCc2ccccc2)cc1N(C)C (centres unmarked) [Compound 39, N-Benzyl-2-[7-(dimethylamino)-1-{[3-(dimethylamino)-4-methoxyphenyl]methyl}-6-methoxy-1,2,3,4-tetrahydroisoquinolin-2-yl]acetamide] the Kd (human OX2 receptor) was 857 ± 220 nM, the Kd (human OX1 receptor) was 7.6 ± 2.8 nM and the OX2/OX1 (human OX1 receptor) was 113.
Compound CCCCOc1ccc(CC2c3cc(OS(C)(=O)=O)c(OC)cc3CCN2CC(=O)NCc2ccccc2)cc1OC (centres unmarked) [Compound 25b, 2-[(Benzylcarbamoyl)methyl]-1-[(4-butoxy-3-methoxyphenyl)methyl]-6-methoxy-1,2,3,4-tetrahydroisoquinolin-7-yl methanesulfonate] has a Kd (human OX2 receptor) of 1200 nM, a Kd (human OX1 receptor) of 5.24 ± 1 nM and an OX2/OX1 (human OX1 receptor) of 229.
Compound CCCOc1cc2c(cc1OC)CCN(CC(=O)NCc1ccccc1)C2Cc1ccc(N(C)C)cc1 (centres unmarked) [Compound 12d, N-Benzyl-2-(1-{[4-(dimethylamino)phenyl]methyl}-6-methoxy-7-propoxy-1,2,3,4-tetrahydroisoquinolin-2-yl)acetamide] has a Kd (human OX2 receptor) greater than 10000 nM, a Kd (human OX1 receptor) of 173 ± 5 nM and an OX2/OX1 (human OX1 receptor) greater than 58.
